The text below walks through data of patent US20100189783A1, “RELATING TO ANTI-HIV TABLET FORMULATIONS” (priority 2007, published 2010).

SMILES strings stand for the structures.

The data set can be described thus: particle size (dv10) of darunavir after drying. Format: physicochemical. To be noted: 10% (volume %) of particles smaller than value. How it is done: The active ingredient darunavir ethanolate used in the marketed 300 mg tablet formulation has been manufactured by a process which includes a drying process in which the particulate darunavir is dried on trays, i.e. a static process. However, in order to provide a higher manufacturing throughput and improved safety for the operators, it is desirable to replace the static drying with a tumble drying operation involving drying in a revolving container. Such a change in the drying operation however has a significant effect on the physical characteristics of the particles of the darunavir. In this case the tumble drying of the particles results in a reduction in the dv10 value (dv10 means that 10% (volume %) of the particles has a diameter smaller than the specified value) from approximately 80 microns to approximately 35 microns. […] It will be appreciated that good blend flow and good tablet properties such as weight uniformity and appropriate visual appearance, without any defects, are essential in a large-scale industrial manufacturing process to maximise throughput and ensure consistent and efficient processing of the material.

For `CC(C)CN(C[C@@H](O)[C@H](Cc1ccccc1)NC(=O)O[C@H]1CO[C@H]2OCC[C@H]21)S(=O)(=O)c1ccc(N)cc1` [darunavir, [(1S,2R)-3-[[(4-aminophenyl)sulfonyl](2-methylpropyl)amino]-2-hydroxy-1-(phenylmethyl)propyl]-carbamic acid (3R,3aS,6aR)hexahydrofuro[2,3-b]furan-3-yl ester], the dv10 value entry by setting is: (after tumble drying) “approximately 35 microns”; (static drying on trays) “approximately 80 microns”.
